Measurements taken from US4731486A, “Hydroformylation using low volatile phosphine ligands” (Union Carbide Corporation, priority 1986, dated 1988).

What was measured:
[1] = Solubility of TPPMS-Na in nonanal with various added solubilizing agents; format: physicochemical
Experimental: The solubility of a monosulfonated triphenylphosphine sodium salt ligand (TPPMS-Na) having the formula [drawing 28] was measured in C9 aldehyde (nonanal) in the presence of various added solubilizing agents and various mixtures of such agents for the ligand. […] The solubilizing agents and their mixtures were employed in a 1:2 weight:weight ratio with the nonanal.

[2] = Batch hydroformylation of hexene-1 (Example 14); settings: Texanol/TPEG-990 3:1; 100° C.; 300 ppm Rh; 8.7 wt. % ligand; 75 psia 4:1 H2:CO
Experimental: (§1) Each rhodium catalytic precursor solution so prepared was then employed to hydroformylate propylene in a magnetically stirred, 100 mL capacity, stainless steel autoclave which was attached to a gas manifold for introducing gases to the desired partial pressures. The autoclave was also equipped with a pressure calibrator for determining reaction pressure to ±0.01 psia. and a platinum resistance thermometer for determining reactor solution temperatures to ±0.10° C. The reactor was heated externally by two 300 watt heating bands. The reactor solution temperature was controlled by a platinum resistance sensor connected to an external proportional temperature controller for controlling the temperature of the external band heaters.
In each non-aqueous hydroformylation reaction, about 15 milliliters (about 14 grams) of the rhodium catalytic precursor solution so prepared was charged to the autoclave reactor under nitrogen and heated to the reaction temperature employed (as given in Table 1 below). […]
The hydroformylation reaction rate in gram moles per liter per hour of C4 aldehydes produced was determined from sequential 5 psia. pressure drops in the reactor spanning the nominal operating pressure in the reactor, while the mole ratio of linear (n-butyraldehyde) to branched (2-methylpropionaldehyde) product was measured by gas chromatography and the results are given in Table 1 below. […]

[3] = Batch hydroformylation of octene-1 (Examples 14, 15, 19)
Experimental: as §1
(§2) In each non-aqueous hydroformylation reaction, about 15 milliliters (about 14 grams) of the rhodium catalytic precursor solution so prepared was charged to the autoclave reactor under nitrogen and heated to the reaction temperature employed (as given in Table 1 below). The reactor was then vented down to 5 psig. and a premixed gas mixture of 1:1:1 carbon monoxide:hydrogen:propylene was introduced into the reactor via the gas manifold (partial pressures given in Table 1) and the propylene so hydroformylated.
The hydroformylation reaction rate in gram moles per liter per hour of C4 aldehydes produced was determined from sequential 5 psia. pressure drops in the reactor spanning the nominal operating pressure in the reactor, while the mole ratio of linear (n-butyraldehyde) to branched (2-methylpropionaldehyde) product was measured by gas chromatography and the results are given in Table 1 below.
The same procedure and conditions employed in Example 1 of preparing various rhodium catalytic precursor solutions using rhodium dicarbonyl acetylacetonate, about a 3:1 (wt.:wt. ratio) mixture of Texanol® and CARBOWAX® TPEG-990 (about 25 wt. %) as the solubilizing agent, and a monosulfonated triphenylphosphine sodium salt ligand having the formula [drawing 26] and hydroformylating an olefin was repeated employing the various rhodium complex catalyst precursor solutions and using different alpha olefins as the hydroformylation feedstocks and the reaction conditions as shown in Table 14 below.
The same procedure and conditions employed in Example 1 of preparing various rhodium catalytic precursor solutions using rhodium dicarbonyl acethylacetonate, a monosulfonated triphenylphosphine sodium salt ligand having the formula [drawing 27] and various mixtures of Texanol® and varying amounts (about 15 wt. % in Run No. 1 and about 10 wt. % in Run Nos. 2 to 5) of different added solubilizing agents as given in Table 15 below, and hydroformylating octene-1 was repeated employing the various rhodium complex catalyst precursor solutions and the reaction conditions as shown in Table 15 below.
(§3) A comparison of the catalytic activity of aqueous and non-aqueous solutions of monosulfonated triphenylphosphine sodium salt ligand promoted catalysts in hydroformylating various molecular weight alphe-olefins was determined as follows.

[4] = Solubility of metal salt ligands in different aldehydes; format: physicochemical
[5] = Batch hydroformylation of propylene in stirred autoclave (Examples 1, 2, 11, 14, 19)
Experimental: A series of various rhodium complex catalyst precursor solutions consisting essentially of the solubilized reaction product of rhodium dicarbonyl acetylacetonate and various monosulfonated triphenylphosphine metal salt ligands were prepared and employed to hydroformylate propylene into C4 aldehydes in the following manner.
as §1, §2, §3
Both the aqueous and non-aqueous hydroformylation reactions were conducted under identical conditions with regard to temperature, rhodium and ligand concentration, hydrogen and carbon monoxide partial pressure and olefin concentration.

[6] = Texanol/Benzonitrile (8:1), 90° C., 200 ppm Rh, 10 wt. % ligand, 75 psia 4:1 H2:CO
[7] = Texanol/Carbowax PEG 150, 90° C., 200 ppm Rh, 10 wt. % ligand, 75 psia 4:1 H2:CO
[8] = Texanol/Dimethyl Sulfoxide (5.5:1), 90° C., 200 ppm Rh, 10 wt. % ligand, 75 psia 4:1 H2:CO
[9] = Texanol/Niax PPG-1025, 90° C., 200 ppm Rh, 10 wt. % ligand, 75 psia 4:1 H2:CO
[10] = Texanol/Sulfolane (8:1), 90° C., 200 ppm Rh, 10 wt. % ligand, 75 psia 4:1 H2:CO
[11] = Texanol/TPEG-990 3:1, 100° C., 300 ppm Rh, 8.7 wt. % ligand, 75 psia 4:1 H2:CO
[12] = aqueous (water as solvent), 100° C., 300 ppm Rh, 90 psia 1:1 H2:CO
[13] = non-aqueous (Texanol/Carbowax TPEG990 2.6:1), 100° C., 300 ppm Rh, 90 psia 1:1 H2:CO
[14] = TERGITOL 15-S-3/CARBOWAX PEG 600/Dimethyl Sulfoxide (4:1:1), 100° C., 200 ppm Rh, 90 psia 1:1:1 H2:CO:C3H6
[15] = TERGITOL 15-S-7/CARBOWAX TPEG 990/N-Methyl Pyrolidone (4:1:1), 100° C., 200 ppm Rh, 90 psia 1:1:1 H2:CO:C3H6
[16] = TERGITOL 15-S-7, 100° C., 200 ppm Rh, 90 psia 1:1:1 H2:CO:C3H6
[17] = TERGITOL 24-L-75N/NIAX PPG 1025 (4:1), 100° C., 200 ppm Rh, 90 psia 1:1:1 H2:CO:C3H6
[18] = TERGITOL NP-4/CARBOWAX TPEG 990 (4:1), 100° C., 200 ppm Rh, 90 psia 1:1:1 H2:CO:C3H6
[19] = TERGITOL NP-9, 100° C., 200 ppm Rh, 90 psia 1:1:1 H2:CO:C3H6
[20] = Texanol/TPEG-990 3:1, 90° C., 300 ppm Rh, 8.7 wt. % ligand, 90 psia 1:1:1 H2:CO:C3H6
[21] = aqueous (water as solvent), 100° C., 300 ppm Rh, 90 psia 1:1:1 H2:CO:Propylene
[22] = non-aqueous (Texanol/Carbowax TPEG990 2.6:1), 100° C., 300 ppm Rh, 90 psia 1:1:1 H2:CO:Propylene

O=S(=O)([O-])c1cccc(P(c2ccccc2)c2ccccc2)c1.[Na+]
TPPMS-Na Solubility ([1]; NIAX PPG-1025, 25 deg. C.): < 2 Weight Percent
TPPMS-Na Solubility ([1]; NIAX PPG-1025, 100 deg. C.): 2 Weight Percent
TPPMS-Na Solubility ([1]; TERGITOL 15-S-3/CARBOWAX PEG 600 (4:1), 25 deg. C.): 2 Weight Percent
TPPMS-Na Solubility ([1]; TERGITOL 15-S-3/CARBOWAX PEG 600 (4:1), 100 deg. C.): > 10 Weight Percent
TPPMS-Na Solubility ([1]; TERGITOL 15-S-3/CARBOWAX PEG 600/Methanol (4:1:1), 25 deg. C.): > 6 Weight Percent
TPPMS-Na Solubility ([1]; TERGITOL 15-S-3, 25 deg. C.): 2 Weight Percent
TPPMS-Na Solubility ([1]; TERGITOL 15-S-3, 100 deg. C.): 8 Weight Percent
TPPMS-Na Solubility ([1]; TERGITOL 15-S-7/CARBOWAX TPEG 990 (3:1), 25 deg. C.): 10 Weight Percent
TPPMS-Na Solubility ([1]; TERGITOL 15-S-7/CARBOWAX TPEG 990 (3:1), 100 deg. C.): 8 Weight Percent
TPPMS-Na Solubility ([1]; TERGITOL 15-S-7, 25 deg. C.): 4 Weight Percent
TPPMS-Na Solubility ([1]; TERGITOL 15-S-7, 100 deg. C.): 8 Weight Percent
TPPMS-Na Solubility ([1]; TERGITOL 24-L-15N, 25 deg. C.): 2 Weight Percent
TPPMS-Na Solubility ([1]; TERGITOL 24-L-15N, 100 deg. C.): 8 Weight Percent
TPPMS-Na Solubility ([1]; TERGITOL 24-L-50N/CARBOWAX PEG 600 (4:1), 25 deg. C.): > 10 Weight Percent
TPPMS-Na Solubility ([1]; TERGITOL 24-L-50N/CARBOWAX PEG 600 (4:1), 100 deg. C.): > 10 Weight Percent
TPPMS-Na Solubility ([1]; TERGITOL 24-L-50N, 25 deg. C.): 4 Weight Percent
TPPMS-Na Solubility ([1]; TERGITOL 24-L-50N, 100 deg. C.): 8 Weight Percent
TPPMS-Na Solubility ([1]; TERGITOL 24-L-75N/CARBOWAX TPEG 990 (4:1), 25 deg. C.): 12 Weight Percent
TPPMS-Na Solubility ([1]; TERGITOL 24-L-75N/CARBOWAX TPEG 990 (4:1), 100 deg. C.): 14 Weight Percent
TPPMS-Na Solubility ([1]; TERGITOL 24-L-75N/CARBOWAX TPEG 990/Methanol (4:1:1), 25 deg. C.): > 16 Weight Percent
TPPMS-Na Solubility ([1]; TERGITOL 24-L-75N/NIAX PPG 1025 (2:1), 25 deg. C.): > 10 Weight Percent
TPPMS-Na Solubility ([1]; TERGITOL 24-L-75N/NIAX PPG 1025 (2:1), 100 deg. C.): > 10 Weight Percent
TPPMS-Na Solubility ([1]; TERGITOL 24-L-75N, 25 deg. C.): 6 Weight Percent
TPPMS-Na Solubility ([1]; TERGITOL 24-L-75N, 100 deg. C.): 8 Weight Percent
TPPMS-Na Solubility ([1]; TERGITOL 25-L-5, 25 deg. C.): 4 Weight Percent
TPPMS-Na Solubility ([1]; TERGITOL 25-L-5, 100 deg. C.): 6 Weight Percent
TPPMS-Na Solubility ([1]; TERGITOL 26-L-5, 25 deg. C.): 2 Weight Percent
TPPMS-Na Solubility ([1]; TERGITOL 26-L-5, 100 deg. C.): 6 Weight Percent
TPPMS-Na Solubility ([1]; TERGITOL NP-4/CARBOWAX TPEG 990 (4:1), 25 deg. C.): 8 Weight Percent
TPPMS-Na Solubility ([1]; TERGITOL NP-4/CARBOWAX TPEG 990 (4:1), 100 deg. C.): 10 Weight Percent
TPPMS-Na Solubility ([1]; TERGITOL NP-4, 25 deg. C.): 2 Weight Percent
TPPMS-Na Solubility ([1]; TERGITOL NP-4, 100 deg. C.): 6 Weight Percent
TPPMS-Na Solubility ([1]; TERGITOL NP-9/CARBOWAX PEG 600 (3:1), 25 deg. C.): 10 Weight Percent
TPPMS-Na Solubility ([1]; TERGITOL NP-9/CARBOWAX PEG 600 (3:1), 100 deg. C.): > 10 Weight Percent
TPPMS-Na Solubility ([1]; TERGITOL NP-9/CARBOWAX PEG 600/Methanol (3:1:1), 25 deg. C.): > 12 Weight Percent
TPPMS-Na Solubility ([1]; TERGITOL NP-9, 25 deg. C.): 4 Weight Percent
TPPMS-Na Solubility ([1]; TERGITOL NP-9, 100 deg. C.): 6 Weight Percent
Linear/Branched Aldehyde Mole Ratio [2]: 13.4
Reaction Rate [2]: 5.21 G moles/L/hr
Linear/Branched Aldehyde Mole Ratio [3, 6]: 26.6
Reaction Rate (C9 aldehydes) [3, 6]: 0.47 G moles/L/hr
Linear/Branched Aldehyde Mole Ratio [3, 7]: 17.6
Reaction Rate (C9 aldehydes) [3, 7]: 1.12 G moles/L/hr
Linear/Branched Aldehyde Mole Ratio [3, 8]: 18.7
Reaction Rate (C9 aldehydes) [3, 8]: 0.95 G moles/L/hr
Linear/Branched Aldehyde Mole Ratio [3, 9]: 23.9
Reaction Rate (C9 aldehydes) [3, 9]: 0.71 G moles/L/hr
Linear/Branched Aldehyde Mole Ratio [3, 10]: 19.1
Reaction Rate (C9 aldehydes) [3, 10]: 0.98 G moles/L/hr
Linear/Branched Aldehyde Mole Ratio [3, 11]: 14.8
Reaction Rate [3, 11]: 4.17 G moles/L/hr
Linear/Branched Aldehyde Mole Ratio [3, 12]: 40.9
Reaction Rate [3, 12]: 0.11 G Moles/L/Hr
Linear/Branched Aldehyde Mole Ratio [3, 13]: 5.8
Reaction Rate [3, 13]: 2.84 G Moles/L/Hr
Metal Salt Solubility ([4]; Butyraldehyde, 60 °C): 10.0 Wt. %
Metal Salt Solubility ([4]; Heptanal, 80 °C): 0.4 Wt. %
Metal Salt Solubility ([4]; Nonanal, 80 °C): 0.5 Wt. %
Metal Salt Solubility ([4]; Propionaldehyde, 35 °C): 16.3 Wt. %
Metal Salt Solubility ([4]; Tridecanal, 80 °C): 0.5 Wt. %
Metal Salt Solubility ([4]; Valeraldehyde, 80 °C): 5.3 Wt. %
Linear/Branched Aldehyde Mole Ratio ([5]; 200 ppm Rh, about 120 mole equivalents ligand, 100° C., 60 psia 1:1:1 H2:CO:C3H6, Texanol/Carbowax PEG-600 10:1): 6.4
Reaction Rate (C4 aldehydes) ([5]; 200 ppm Rh, about 120 mole equivalents ligand, 100° C., 60 psia 1:1:1 H2:CO:C3H6, Texanol/Carbowax PEG-600 10:1, average of two runs): 0.28 Gmoles/L/Hr
Linear/Branched Aldehyde Mole Ratio [5, 14]: 5.6
Reaction Rate (C4 aldehydes) [5, 14]: 0.25 G moles/L/hr
Linear/Branched Aldehyde Mole Ratio [5, 15]: 5.0
Reaction Rate (C4 aldehydes) [5, 15]: 0.75 G moles/L/hr
Linear/Branched Aldehyde Mole Ratio [5, 16]: 4.7
Reaction Rate (C4 aldehydes) [5, 16]: 0.49 G moles/L/hr
Linear/Branched Aldehyde Mole Ratio [5, 17]: 5.3
Reaction Rate (C4 aldehydes) [5, 17]: 0.54 G moles/L/hr
Linear/Branched Aldehyde Mole Ratio [5, 18]: 6.0
Reaction Rate (C4 aldehydes) [5, 18]: 0.59 G moles/L/hr
Linear/Branched Aldehyde Mole Ratio [5, 19]: 5.1
Reaction Rate (C4 aldehydes) [5, 19]: 0.67 G moles/L/hr
Linear/Branched Aldehyde Mole Ratio [5, 20]: 5.0
Reaction Rate [5, 20]: 1.72 G moles/L/hr
Linear/Branched Aldehyde Mole Ratio [5, 21]: 19.3
Reaction Rate [5, 21]: 0.07 G Moles/L/Hr
Linear/Branched Aldehyde Mole Ratio [5, 22]: 4.8
Reaction Rate [5, 22]: 2.60 G Moles/L/Hr
